Experimental findings from patent publication US10166218B2, “3-(1H-indol-2-yl)-1H-pyrazolo[3,4-C]pyridines and therapeutic uses thereof” (Samumed, LLC, priority 2015, dated 2019) are described below.

Type in all cases: cell-based
Test [1] has as its system SW480 colon cancer cells. The test is described as follows: Cell viability assay (CellTiter-Blue) in SW480 colon cancer cells. The settings on record: Homo sapiens, 96 h, four days; for pEC50: CellTiter-Blue; for inhibition at 10 µM: read-out: percent inhibition at 10 μM (given for EC50 of >10 μM). In short, it runs like this:
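SW480 cells (~2×10^3 per well) were exposed to compound for four days at 37 °C/5% CO2, using 8-point 1:3 dilutions from 10 μM to 0.0045 μM in duplicate. Viability was read by resazurin reduction (CellTiter-Blue, ~3 h, Ex 560/Em 590 nm). EC50 came from non-linear regression; above 10 μM, percent inhibition at 10 μM is given.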

The subject of test [2] is primary human fibroblasts derived from IPF patients (LL29 cells) treated with TGF-β1; α-smooth muscle actin (αSMA). Put plainly: Inhibition of the fibrotic process: αSMA staining in TGF-β1 treated primary human fibroblasts from IPF patients (LL29 cells). The conditions noted are these: Fibroblast, 96 h, TGF-β1 20 ng/mL, 4 days, % cells positive for αSMA. In short, it runs like this: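 LL29 cells plated in F12 with 1% FBS, compounds added as 11-point 1:2 series (10 μM to 1.87 nM, 0.1% DMSO), then TGF-β1 20 ng/mL; 4 days at 37 °C. Fixed, αSMA immunostained, imaged; SYTOX-positive cells excluded. % αSMA-positive cells normalized to TGF-β1 wells; EC50 by non-linear regression, or % inhibition at 10 μM.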

In test [3] the test system is IL-6 (THP-1 cells). Put plainly: Inhibition of IL-6 in LPS-stimulated THP-1 human monocyte cells (HTRF). The settings on record: for inhibition at 10 µM: IL-6 assay in LPS-stimulated THP-1 cells, given only where EC50 >10 μM, meaning not given (top concentration 10 μM), read-out: percentage given in parentheses after EC50 >10; for pEC50: inhibition of IL-6 in LPS-stimulated THP-1 cells, HTRF, 10-point dose-response starting from 10 μM. In short, it runs like this: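 THP-1 cells, serum-reduced (1% FBS) for 24 h, were preincubated with compound (10-point 1:3 series from 10 μM, 0.1% DMSO) for 2 h, then stimulated with 500 ng/mL LPS for 22 h at 37° C. IL-6 was read by HTRF (665/620 nm ratio) and normalized to DMSO. EC50 from four-parameter fit; % inhibition at 10 μM given if EC50 >10 μM.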

pEC50: −log10 of the molar value.

Regarding `Cc1ccncc1-c1cc2c(-c3cc4c(-c5cccc(F)c5)cccc4[nH]3)n[nH]c2cn1` [Compound 5, 3-(4-(3-Fluorophenyl)-1H-indol-2-yl)-5-(4-methylpyridin-3-yl)-1H-pyrazolo [3,4-c]pyridine], the pEC50 was 5.16 in test [1], 6.22 in test [2] and less than 5.00 in test [3]. The inhibition at 10 µM in test [3] is 30.7%.
In the case of `O=C(Nc1cncc(-c2cc3c(-c4cc5c(-c6cccc(F)c6)cccc5[nH]4)n[nH]c3cn2)c1)c1ccccc1` [Compound 11, N-(5-(3-(4-(3-Fluorophenyl)-1H-indol-2-yl)-1H-pyrazolo[3,4-c]pyridin-5-yl)pyridin-3-yl)benzamide], the results for the negative logarithm of the EC50 (pEC50) in test [1], in test [2] and in test [3] were 5.27, 6.06 and 5.49, respectively.
Turning to `O=C(Nc1cncc(-c2cc3c(-c4cc5c(-c6cccc(F)c6)cccc5[nH]4)n[nH]c3cn2)c1)C1CCC1` [Compound 21, N-(5-(3-(4-(3-Fluorophenyl)-1H-indol-2-yl)-1H-pyrazolo[3,4-c]pyridin-5-yl)pyridin-3-yl)cyclobutanecarboxamide], the inhibition at 10 µM in test [1] was 11.5%; in test [3] it was 0%. In addition, the pEC50 is less than 5.00 in test [1], 5.77 in test [2] and less than 5.00 in test [3].
For `CC(C)CC(=O)Nc1cncc(-c2cc3c(-c4cc5c(-c6ccc(F)cc6)cccc5[nH]4)n[nH]c3cn2)c1` [Compound 30, N-(5-(3-(4-(4-Fluorophenyl)-1H-indol-2-yl)-1H-pyrazolo[3,4-c]pyridin-5-yl)pyridin-3-yl)-3-methylbutanamide], the inhibition at 10 µM in test [1] is 28.3%. Also, the pEC50 is less than 5.00 in test [1], 5.64 in test [2] and 5.29 in test [3].
Regarding `CCNCc1cncc(-c2cc3c(-c4cc5c(-c6ccc(F)cc6)cccc5[nH]4)n[nH]c3cn2)c1` [Compound 34, N-((5-(3-(4-(4-Fluorophenyl)-1H-indol-2-yl)-1H-pyrazolo[3,4-c]pyridin-5-yl)pyridin-3-yl)methyl)ethanamine], the pEC50 is 6.09 in test [1], 7.54 in test [2] and 6.40 in test [3].
Turning to `O=C(Cc1ccccc1)Nc1cncc(-c2cc3c(-c4cc5c(-c6ccc(F)cc6)cccc5[nH]4)n[nH]c3cn2)c1` [Compound 38, N-(5-(3-(4-(4-Fluorophenyl)-1H-indol-2-yl)-1H-pyrazolo[3,4-c]pyridin-5-yl)pyridin-3-yl)-2-phenylacetamide], the results for the pEC50 in test [1], in test [2] and in test [3] were 5.36, 6.18 and less than 5.00, respectively. For the same molecule, the inhibition at 10 µM in test [3] was 29.4%.
For the molecule `Fc1ccc(-c2cccc3[nH]c(-c4n[nH]c5cnc(-c6cncc(CN7CCCC7)c6)cc45)cc23)cc1` [Compound 42, 3-(4-(4-Fluorophenyl)-1H-indol-2-yl)-5-(5-(pyrrolidin-1-ylmethyl)pyridin-3-yl)-1H-pyrazolo[3,4-c]pyridine], the pEC50 in test [1] was 5.97; in test [2] it was 7.11; in test [3], 5.42.
On to `O=C(Nc1cncc(-c2cc3c(-c4cc5c(-c6ccc(F)cc6)cccc5[nH]4)n[nH]c3cn2)c1)C1CCCCC1` [Compound 51, N-(5-(3-(4-(4-Fluorophenyl)-1H-indol-2-yl)-1H-pyrazolo[3,4-c]pyridin-5-yl)pyridin-3-yl)cyclohexanecarboxamide], for which the pEC50 in test [1] is 5.02; in test [2], 6.09; in test [3] it was less than 5.00. The inhibition at 10 µM in test [3] was 6.7%.
As to `Fc1ccc(-c2cccc3[nH]c(-c4n[nH]c5cnc(-c6cncnc6)cc45)cc23)cc1` [Compound 55, 3-(4-(4-Fluorophenyl)-1H-indol-2-yl)-5-(pyrimidin-5-yl)-1H-pyrazolo[3,4-c]pyridine], the inhibition at 10 µM in test [1] came to 13.6%. Moreover, the pEC50 is less than 5.00 in test [1], 5.57 in test [2] and 5.02 in test [3].
In the case of `Nc1cncc(-c2cc3c(-c4cc5c(-c6ccccc6F)cccc5[nH]4)n[nH]c3cn2)c1` [Compound 59, 5-(3-(4-(2-Fluorophenyl)-1H-indol-2-yl)-1H-pyrazolo[3,4-c]pyridin-5-yl) pyridin-3-amine], the pEC50 in test [1] is 5.89; in test [2], 6.84; in test [3] it was 6.01.
In the case of `CC(C)C(=O)Nc1cncc(-c2cc3c(-c4cc5c(-c6ccccc6F)cccc5[nH]4)n[nH]c3cn2)c1` [Compound 65, N-(5-(3-(4-(2-Fluorophenyl)-1H-indol-2-yl)-1H-pyrazolo[3,4-c]pyridin-5-yl)pyridin-3-yl)isobutyramide], the negative logarithm of the EC50 (pEC50) in test [1] was 5.30; in test [2] it was 5.95; in test [3] it was less than 5.00. Besides, the inhibition at 10 µM in test [3] was 30.1%.
`Fc1ccccc1-c1cccc2[nH]c(-c3n[nH]c4cnc(-c5cncc(CN6CCCCC6)c5)cc34)cc12` [Compound 71, 3-(4-(2-Fluorophenyl)-1H-indol-2-yl)-5-(5-(piperidin-1-ylmethyl)pyridin-3-yl)-1H-pyrazolo[3,4-c]pyridine]: the values for the pEC50 in test [1], in test [2] and in test [3] were 5.78, 6.80 and 5.12, respectively.
`CCCCC(=O)Nc1cncc(-c2cc3c(-c4cc5c(-c6ccccc6F)cccc5[nH]4)n[nH]c3cn2)c1` [Compound 75, N-(5-(3-(4-(2-Fluorophenyl)-1H-indol-2-yl)-1H-pyrazolo[3,4-c]pyridin-5-yl)pyridin-3-yl)pentanamide]: in test [1], the inhibition at 10 µM is 10.7%. The pEC50 in test [1] was less than 5.00; in test [2] it was 5.69; in test [3], 8.52.
Regarding `O=C(Nc1cncc(-c2cc3c(-c4cc5c(-c6ccccc6F)cccc5[nH]4)n[nH]c3cn2)c1)C1CC1` [Compound 76, N-(5-(3-(4-(2-Fluorophenyl)-1H-indol-2-yl)-1H-pyrazolo[3,4-c]pyridin-5-yl)pyridin-3-yl)cyclopropanecarboxamide], the pEC50 in test [1] is 5.18; in test [2], 6.51; in test [3], less than 5.00. Also, in test [3], the inhibition at 10 µM was 11.1%.
With `CCC(=O)Nc1cncc(-c2cc3c(-c4cc5c(-c6cccnc6)cccc5[nH]4)n[nH]c3cn2)c1` [Compound 85, N-(5-(3-(4-(Pyridin-3-yl)-1H-indol-2-yl)-1H-pyrazolo[3,4-c]pyridin-5-yl)pyridin-3-yl)propionamide], the pEC50 is 5.94 in test [1], 6.26 in test [2] and 7.13 in test [3].
Consider `c1cncc(-c2cc3c(-c4cc5c(-c6cccnc6)cccc5[nH]4)n[nH]c3cn2)c1` [Compound 88, 5-(Pyridin-3-yl)-3-(4-(pyridin-3-yl)-1H-indol-2-yl)-1H-pyrazolo[3,4-c]pyridine], for which the negative logarithm of the EC50 (pEC50) in test [1] is 5.96; in test [2], 6.52; in test [3] it was 6.96.
In the same order, the values of `CC(C)C(=O)Nc1cncc(-c2cc3c(-c4cc5c(-c6cccnc6)cccc5[nH]4)n[nH]c3cn2)c1` [Compound 93, N-(5-(3-(4-(Pyridin-3-yl)-1H-indol-2-yl)-1H-pyrazolo[3,4-c]pyridin-5-yl)pyridin-3-yl)isobutyramide] are 6.52, 6.53 and 6.74.
Turning to `O=C(Nc1cncc(-c2cc3c(-c4cc5c(-c6cccnc6)cccc5[nH]4)n[nH]c3cn2)c1)c1ccccc1` [Compound 95, N-(5-(3-(4-(Pyridin-3-yl)-1H-indol-2-yl)-1H-pyrazolo[3,4-c]pyridin-5-yl)pyridin-3-yl)benzamide], the negative logarithm of the EC50 (pEC50) in test [1] is 5.86; in test [2], 6.78; in test [3], 6.14.
